Source: ChEMBL document CHEMBL1201862, “PubChem BioAssay data set” (2004)
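Exposure lasted 48 hours, with cells grown in 96-well plates and compounds tested at five concentrations. At the GI50, growth is halved.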 Active and inactive are the calls of the source. Cut-off read from the data, not from the text of the source: active = GI50 up to about 1.1 µM and inactive = higher.

Columns and labels:
Assay in all cases: growth of human tumour cells (NCI), 48 h
786-0 = test system: 786-0
A498 = test system: A498
A549 = test system: A549
ACHN = test system: ACHN
CCRF-CEM = test system: CCRF-CEM
COLO 205 = test system: COLO 205
DLD-1 = test system: DLD-1
DMS-114 = test system: DMS-114
DMS-273 = test system: DMS-273
EKVX = test system: EKVX
HCC 2998 = test system: HCC 2998
HCT-116 = test system: HCT-116
HCT-15 = test system: HCT-15
HL-60 = test system: HL-60
HOP-18 = test system: HOP-18
HOP-62 = test system: HOP-62
HOP-92 = test system: HOP-92
HT-29 = test system: HT-29
IGROV-1 = test system: IGROV-1
K562 = test system: K562
KM-20L2 = test system: KM-20L2
LXFL 529 = test system: LXFL 529
M14 = test system: M14
M19-MEL = test system: M19-MEL
MOLT-4 = test system: MOLT-4
Malme-3M = test system: Malme-3M
NCI-H226 = test system: NCI-H226
NCI-H23 = test system: NCI-H23
NCI-H522 = test system: NCI-H522
OVCAR-4 = test system: OVCAR-4
OVCAR-8 = test system: OVCAR-8
RPMI-8226 = test system: RPMI-8226
RXF 393 = test system: RXF 393
SF-268 = test system: SF-268
SF-295 = test system: SF-295
SF-539 = test system: SF-539
SK-MEL-28 = test system: SK-MEL-28
SK-MEL-5 = test system: SK-MEL-5
SK-OV-3 = test system: SK-OV-3
SN12C = test system: SN12C
SNB-19 = test system: SNB-19
SNB-75 = test system: SNB-75
SNB-78 = test system: SNB-78
SR = test system: SR
SW-620 = test system: SW-620
U-251 = test system: U-251
UACC-257 = test system: UACC-257
UACC-62 = test system: UACC-62
UO-31 = test system: UO-31
XF498 = test system: XF498
CAKI-1 = test system: CAKI-1
KM12 = test system: KM12
LOX IMVI = test system: LOX IMVI
NCI-H460 = test system: NCI-H460
OVCAR-3 = test system: OVCAR-3
SK-MEL-2 = test system: SK-MEL-2
TK-10 = test system: TK-10

For COc1ccc(/C(Cl)=C/c2cc(OC)ccc2OC)cc1, the GI50 (786-0) was 81.8 µM (inactive), the GI50 (A498) was 92.9 µM (inactive) and the GI50 (A549) was 75.2 µM (inactive). For the same compound, the GI50 (ACHN) was 65.8 µM (inactive), the GI50 (CCRF-CEM) was 31.8 µM (inactive) and the GI50 (COLO 205) was > 100 µM (inactive). For the same compound, the GI50 (DLD-1) was 79.4 µM (inactive), the GI50 (DMS-114) was 42.3 µM (inactive) and the GI50 (DMS-273) was 35.2 µM (inactive). For the same compound, the GI50 (EKVX) was > 100 µM (inactive), the GI50 (HCC 2998) was 87.5 µM (inactive) and the GI50 (HCT-116) was 48.8 µM (inactive). For the same compound, the GI50 (HCT-15) was 53.2 µM, the GI50 (HL-60) was 28.4 µM (inactive) and the GI50 (HOP-18) was > 100 µM (inactive). The GI50 (HOP-62) was > 100 µM (inactive), the GI50 (HOP-92) was 40.8 µM (inactive) and the GI50 (HT-29) was 62.2 µM (inactive). The GI50 (IGROV-1) was > 100 µM (inactive), the GI50 (K562) was 47 µM (inactive) and the GI50 (KM-20L2) was 93.3 µM (inactive). For the same compound, the GI50 (LXFL 529) was 72.1 µM (inactive), the GI50 (M14) was 63.8 µM (inactive) and the GI50 (M19-MEL) was 80 µM (inactive). The GI50 (MOLT-4) was 49.9 µM (inactive), the GI50 (Malme-3M) was 93.3 µM (inactive) and the GI50 (NCI-H226) was 44.7 µM (inactive). For the same compound, the GI50 (NCI-H23) was 53 µM (inactive), the GI50 (NCI-H522) was 46.9 µM (inactive) and the GI50 (OVCAR-4) was > 100 µM (inactive). The GI50 (OVCAR-8) was 61.9 µM (inactive), the GI50 (RPMI-8226) was 34.2 µM (inactive) and the GI50 (RXF 393) was 20.5 µM (inactive). For the same compound, the GI50 (SF-268) was 58.2 µM (inactive), the GI50 (SF-295) was 51.4 µM (inactive) and the GI50 (SF-539) was 64.7 µM (inactive). For the same compound, the GI50 (SK-MEL-28) was 79.6 µM (inactive), the GI50 (SK-MEL-5) was 64.7 µM (inactive) and the GI50 (SK-OV-3) was 99.8 µM (inactive). For the same compound, the GI50 (SN12C) was 56.4 µM (inactive), the GI50 (SNB-19) was > 100 µM (inactive) and the GI50 (SNB-75) was 40.1 µM (inactive). The GI50 (SNB-78) was 79.6 µM (inactive), the GI50 (SR) was 30.6 µM (inactive) and the GI50 (SW-620) was 48.1 µM (inactive). For the same compound, the GI50 (U-251) was 84.7 µM (inactive), the GI50 (UACC-257) was > 100 µM (inactive) and the GI50 (UACC-62) was 38.4 µM (inactive). The GI50 (UO-31) was 98.9 µM (inactive) and the GI50 (XF498) was 71.3 µM (inactive).
In the case of CC(C)C(CCOS(=O)(=O)O)CCC(C)[C@H]1[C@@H](O)C(O)C2[C@]3(O)C[C@@H](O)C4(O)C[C@@H](O)CC[C@]4(C)C3CC[C@@]21C (stereo partly drawn), the GI50 (786-0) is reported as > 100 µM (inactive), the GI50 (A549) is reported as > 100 µM (inactive) and the GI50 (ACHN) is reported as > 100 µM (inactive). For the same compound, the GI50 (CAKI-1) was > 100 µM (inactive), the GI50 (CCRF-CEM) was > 100 µM (inactive) and the GI50 (COLO 205) was > 100 µM (inactive). For the same compound, the GI50 (DLD-1) was > 100 µM (inactive), the GI50 (DMS-114) was > 100 µM (inactive) and the GI50 (DMS-273) was > 100 µM (inactive). For the same compound, the GI50 (EKVX) was > 100 µM (inactive), the GI50 (HCC 2998) was > 100 µM (inactive) and the GI50 (HCT-116) was > 100 µM (inactive). For the same compound, the GI50 (HCT-15) was greater than 100 µM, the GI50 (HL-60) was > 100 µM (inactive) and the GI50 (HOP-18) was > 100 µM (inactive). For the same compound, the GI50 (HOP-62) was > 100 µM (inactive), the GI50 (HOP-92) was > 100 µM (inactive) and the GI50 (HT-29) was > 100 µM (inactive). For the same compound, the GI50 (IGROV-1) was > 100 µM (inactive), the GI50 (K562) was > 100 µM (inactive) and the GI50 (KM-20L2) was > 100 µM (inactive). The GI50 (KM12) was > 100 µM (inactive), the GI50 (LOX IMVI) was > 100 µM (inactive) and the GI50 (LXFL 529) was > 100 µM (inactive). The GI50 (M14) was > 100 µM (inactive), the GI50 (M19-MEL) was > 100 µM (inactive) and the GI50 (Malme-3M) was > 100 µM (inactive). The GI50 (NCI-H226) was > 100 µM (inactive), the GI50 (NCI-H23) was > 100 µM (inactive) and the GI50 (NCI-H460) was > 100 µM (inactive). The GI50 (NCI-H522) was > 100 µM (inactive), the GI50 (OVCAR-3) was > 100 µM (inactive) and the GI50 (OVCAR-4) was > 100 µM (inactive). For the same compound, the GI50 (OVCAR-8) was > 100 µM (inactive), the GI50 (RPMI-8226) was > 100 µM (inactive) and the GI50 (RXF 393) was > 100 µM (inactive). For the same compound, the GI50 (SF-268) was > 100 µM (inactive), the GI50 (SF-295) was > 100 µM (inactive) and the GI50 (SF-539) was > 100 µM (inactive). For the same compound, the GI50 (SK-MEL-28) was > 100 µM (inactive), the GI50 (SK-MEL-2) was > 100 µM (inactive) and the GI50 (SK-MEL-5) was > 100 µM (inactive). For the same compound, the GI50 (SK-OV-3) was > 100 µM (inactive), the GI50 (SN12C) was > 100 µM (inactive) and the GI50 (SNB-19) was > 100 µM (inactive). The GI50 (SNB-78) was > 100 µM (inactive), the GI50 (SR) was > 100 µM (inactive) and the GI50 (SW-620) was > 100 µM (inactive). The GI50 (TK-10) was > 100 µM (inactive), the GI50 (U-251) was > 100 µM (inactive) and the GI50 (UACC-62) was > 100 µM (inactive). The GI50 (UO-31) was > 100 µM (inactive) and the GI50 (XF498) was > 100 µM (inactive).
